Counter-ions that a name gives are not always drawn.
These compounds were tested on F-2,6-P2 in PANC-1 cells (assay: Quantification of F-2,6-P2 (Van Schaftingen coupled enzyme assay) in PANC-1 cells). Conditions: Homo sapiens; PANC-1 cells; read-out: IC50 based on quantification of F-2,6-P2.
Format: cell-based, human
Source text: A method for quantification of F-2,6-P2 has been described by Van Schaftingen et al. (1982) Eur. J. Biochem. 129, 191-5. This sensitive assay is based on the potent activation of pyrophosphate dependent phosphofructokinase-1 (PPi-PFK) from potato tubers by F-2,6-P2. The use of a series of coupled enzymes leads to a consumption of NADH (nicotinamide adenine dinucleotide) that can be followed spectrophotometrically (an updated protocol is available in Van Schaftingen, (1984) Methods of Enzymatic Analysis (Bergmeyer, H. U., ed.), 3rd edn., vol. 6, pp. 335-341, Verlag Chemie, Weinheim). A protocol for measurements in 96-well microtiter plate format is also available (Bruni et al., (1989) Anal. Biochem. 178, 324-6).
The levels of F-2,6-P2 have been determined using the van Shaftingen assay as described in the protocol below, in six different cancer cell lines endogenously expressing varying levels of the different isoforms of PFK-2/BPase-2 (MCF-7, PANC-1, NUGC-3, SW480, SW620 and MIA PaCa-2). All reagents were purchased from commercial sources or prepared in-house.
Cell line B (PANC-1, human pancreatic carcinoma cell line): PANC-1 cells (ATCC-CRL-1469), lot. no. 58564651. Cells were seeded at a concentration of ˜250 000 cells/mL in 100 μL growth medium (˜25 000 cells/well).
Growth medium (cell lines B-F): Dulbecco's Modified Eagle's Medium, DMEM, VWR, LONZ12-604F; 10% FBS, Invitrogen, 10270-106.
Starvation medium (cell lines A-F): DMEM/F12 without phenol red and glucose free, SVA, 991373; 0.25% FBS, Invitrogen, 10270-106.
Induction medium (cell lines A-F): DMEM/F12 without phenol red and glucose free, SVA, 991373; 0.25% FBS, Invitrogen, 10270-106 (same as starvation medium).
Cells were seeded in 96-well Corning Costar tissue culture plates (CLS3595, Sigma-Aldrich) using the concentrations specified above for the different cell lines A-F and incubated over night at 37° C. and 5% CO2. Row A in the plate was left empty and the cell lines added to rows B-H. Next day the growth medium was discarded and replaced with 100 μL starvation medium. The plates were incubated for 18 h at 37° C. and 5% CO2. After 18 h of starvation the cells were induced with 100 μL compound or control solutions. Compounds were either tested in two concentrations (50 μM and 10 μM) or in dose response curves starting from 50 μM. The final DMSO concentration in assay plates was 0.5%. Also a dose response curve of a reference inhibitor was included in row H on each plate. All compounds were tested in duplicate plates. Compounds (in 96 well CLS 3365, Sigma-Aldrich plates) were serial diluted in DMSO from 10 mM compound DMSO stock solutions with Janus (automated liquid handling workstation from PerkinElmer). Five μL were transferred to a Greiner deep well plate (736-0155, VWR) with 495 μL starvation medium. The final start concentration of compounds in the dilution plate was 100 μM, 1% DMSO. For compounds tested as single points, 10 mM compound solutions were diluted five fold in DMSO to 2 mM, followed by the transfer of 5 μL to separate dilution plates with 495 μL starvation medium. The final concentrations of compounds in these dilution plates were 100 or 20 μM, respectively, and final concentration of DMSO was 1%. The plates were incubated at 37° C. and 5% CO2 for 1 h, followed by the addition of 10 μL 20 mM D-glucose in starvation medium. Controls, with and without 1 mM glucose, were included in row B. The final assay volume was 210 μL per well. After 2 h of incubation at 37° C. and 5% CO2, the supernatants were discarded and the cells lysed by the addition of 25 μL 250 mM NaOH. The plates were incubated at 37° C. and 5% CO2 for 5 min followed by an addition of 75 μL MilliQ dH2O. The supernatants were further diluted with 210 μL MilliQ dH2O to a final concentration of 20 mM NaOH. 200 μL were transferred to NUNC 96-well plates (7322661, VWR) and the plates were sealed and stored at −20° C. until analysis. […]

IC50 [µM] | SMILES
0.8 | O=C(OCc1ccccc1)c1ccc(NS(=O)(=O)c2cc(Cl)c(Cl)s2)cc1O [Example 71, Benzyl 4-{[(4,5-dichloro-2-thienyl)sulfonyl]amino}-2-hydroxybenzoate]
1.6 | COC(=O)c1ccc(NS(=O)(=O)c2cccc(-c3ccccc3)c2)cc1O [Example 87, Methyl 4-[(biphenyl-3-ylsulfonyl)amino]-2-hydroxybenzoate]
6.7 | COC(=O)c1ccc(NS(=O)(=O)c2cccc(-c3ccncc3)c2)cc1O [Example 89, Methyl 2-hydroxy-4-{[(3-pyridin-4-ylphenyl)sulfonyl]amino}benzoate trifluoroacetate]
4.5 | COC(=O)c1ccc(NS(=O)(=O)c2cccc(-c3ccc4ncccc4c3)c2)cc1O [Example 91, Methyl 2-hydroxy-4-{[(3-quinolin-6-ylphenyl)sulfonyl]amino}benzoate trifluoroacetate]
1.7 | COC(=O)c1ccc(NS(=O)(=O)c2cccc(-c3ccc(C(C)=O)s3)c2)cc1O [Example 95, Methyl 4-({[3-(5-acetyl-2-thienyl)phenyl]sulfonyl}amino)-2-hydroxybenzoate]
2.4 | COC(=O)c1ccc(NS(=O)(=O)c2cccc(-c3ccc(OC(F)(F)F)cc3)c2)cc1O [Example 99, Methyl 2-hydroxy-4-({[4′-(trifluoromethoxy)biphenyl-3-yl]sulfonyl}amino)benzoate]
8.4 | COC(=O)c1ccc(NS(=O)(=O)c2cccc(-c3ccc(C(=O)N(C)C)cc3)c2)cc1O [Example 101, Methyl 4-({[4′-(dimethylcarbamoyl)biphenyl-3-yl]sulfonyl}amino)-2-hydroxybenzoate]
2.8 | COC(=O)c1ccc(NS(=O)(=O)c2cc(-c3cccc(N)c3)c(Cl)s2)cc1O [Example 107, Methyl 4-({[4-(3-aminophenyl)-5-chlorothiophen-2-yl]sulfonyl}amino)-2-hydroxybenzoate trifluoroacetate]
7.7 | COC(=O)c1ccc(NS(=O)(=O)c2cc(-c3ccc(NS(C)(=O)=O)cc3)c(Cl)s2)cc1O [Example 108, Methyl 4-{[(5-chloro-4-{4-[(methylsulfonyl)amino]phenyl}thiophen-2-yl)sulfonyl]amino}-2-hydroxybenzoate]
4.6 | COC(=O)c1ccc(NS(=O)(=O)c2cc(-c3cccnc3)c(Cl)s2)cc1O [Example 111, Methyl 4-{[(5-chloro-4-pyridin-3-ylthiophen-2-yl)sulfonyl]amino}-2-hydroxybenzoate]
5.4 | COC(=O)c1ccc(NS(=O)(=O)c2cccc(-c3cccc(C(N)=O)c3)c2)cc1O [Example 113, Methyl 4-{[(3′-carbamoylbiphenyl-3-yl)sulfonyl]amino}-2-hydroxybenzoate]
1.7 | COC(=O)c1ccc(NS(=O)(=O)c2cc(-c3ccc4c(c3)CCO4)cc(C(F)(F)F)c2)cc1O [Example 116, Methyl 4-({[3-(2,3-dihydro-1-benzofuran-5-yl)-5-(trifluoromethyl)phenyl]sulfonyl}amino)-2-hydroxybenzoate]
2 | COC(=O)c1ccc(NS(=O)(=O)c2ccc(-c3cc(F)ccc3F)s2)cc1O [Example 118, Methyl 4-({[5-(2,5-difluorophenyl)thiophen-2-yl]sulfonyl}amino)-2-hydroxybenzoate]
5.9 | COC(=O)c1ccc(NS(=O)(=O)Cc2cccc(-c3ccc4c(c3)CCO4)c2)cc1O [Example 122, Methyl 4-({[3-(2,3-dihydro-1-benzofuran-5-yl)benzyl]sulfonyl}amino)-2-hydroxybenzoate]
1.4 | COC(=O)c1ccc(NS(=O)(=O)Cc2ccc(-c3ccccc3O)cc2)cc1O [Example 126, Methyl 2-hydroxy-4-({[(2′-hydroxybiphenyl-4-yl)methyl]sulfonyl}amino)benzoate]
13.3 | COC(=O)c1ccc(NS(=O)(=O)c2cccc(-c3cccc(C(=O)OC(C)C)c3)c2)cc1O [Example 128, 1-Methylethyl 3′-{[3-hydroxy-4-(methoxycarbonyl)phenyl]sulfamoyl}biphenyl-3-carboxylate]
1.2 | COCCOC(=O)c1ccc(NS(=O)(=O)c2cc(-c3ccccc3O)c(Cl)s2)cc1O [Example 133, 2-Methoxyethyl 4-({[5-chloro-4-(2-hydroxyphenyl)-2-thienyl]sulfonyl}amino)-2-hydroxybenzoate]
11.1 | COC(=O)c1ccc(NS(=O)(=O)c2cccc(C(=O)OC(C)C)c2)cc1O [Example 137, Methyl 2-hydroxy-4-[({3-[(1-methylethoxy)carbonyl]phenyl}sulfonyl)amino]benzoate]
1.5 | COC(=O)c1ccc(NS(=O)(=O)c2cccc(N3CCCCC3)c2)cc1O [Example 142, Methyl 2-hydroxy-4-({[3-(piperidin-1-yl)phenyl]sulfonyl}amino)benzoate]

Same assay, conditions: at 12.5-50 μM in PANC-1 cells

SMILES | inhibition (F-2,6-P2 levels) [%]
O=C(Oc1ccccc1)c1ccc(NS(=O)(=O)c2cc(Cl)c(Cl)s2)cc1O [Example 73, Phenyl 4-{[(4,5-dichloro-2-thienyl)sulfonyl]amino}-2-hydroxybenzoate] | ≥ 50
COC(=O)c1cccc(-c2cc(S(=O)(=O)Nc3ccc(C(=O)OC)c(O)c3)sc2Cl)c1 [Example 77, Methyl 4-[({5-chloro-4-[3-(methoxycarbonyl)phenyl]thiophen-2-yl}sulfonyl)amino]-2-hydroxybenzoate] | ≥ 50
COC(=O)c1ccc(NS(=O)(=O)c2cnc(Cl)c(-c3cccc(F)c3)c2)cc1O [Example 83, Methyl 4-({[6-chloro-5-(3-fluorophenyl)pyridin-3-yl]sulfonyl}amino)-2-hydroxybenzoate] | ≥ 50
COC(=O)c1ccc(NS(=O)(=O)c2cccc(-c3ccc(SC)cc3)c2)cc1O [Example 98, Methyl 2-hydroxy-4-({[4′-(methylsulfanyl)biphenyl-3-yl]sulfonyl}amino)benzoate] | ≥ 50
COC(=O)c1ccc(NS(=O)(=O)c2cccc(-c3ccc(C(F)(F)F)cc3)c2)cc1O [Example 100, Methyl 2-hydroxy-4-({[4′-(trifluoromethyl)biphenyl-3-yl]sulfonyl}amino)benzoate] | ≥ 50
COC(=O)c1ccc(NS(=O)(=O)c2cccc(OC)c2)cc1O [Example 121, Methyl 2-hydroxy-4-{[(3-methoxyphenyl)sulfonyl]amino}benzoate] | ≥ 50
COC(=O)c1ccc(NS(=O)(=O)c2cccc(C(C)=O)c2)cc1O [Example 129, Methyl 4-{[(3-acetylphenyl)sulfonyl]amino}-2-hydroxybenzoate] | ≥ 50
COC(=O)c1ccc(NS(=O)(=O)c2cncc(-c3cccc(OC)c3F)c2)cc1O [Example 130, Methyl 4-({[5-(2-fluoro-3-methoxyphenyl)pyridin-3-yl]sulfonyl}amino)-2-hydroxybenzoate] | ≥ 50
CC(=O)Oc1cc(NS(=O)(=O)c2cccc3ccccc23)ccc1C(=O)OCc1ccccc1 [Example 140, Benzyl 2-acetoxy-4-[(1-naphthylsulfonyl)amino]benzoate] | ≥ 50
